# Measurements as given in PubChem BioAssay (NCI).
#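 Assay format: 96-well plates, 48-hour exposure. Abbreviation: GI50, concentration required for 50% inhibition of growth. At the TGI there is no net growth.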
# Tested on: MCF7 breast
# Experiment: NCI tumour cell line growth inhibition, 48 h
SMILES,GI50,TGI
Cc1cc2nc(C(Cl)Cl)nc(-c3ccc(Cl)cc3)n2n1,0.465 µM,5.1 µM
CC1=C(C#N)C23C(=O)c4ccccc4C(O)=C2C(=O)C=CC3(O)N1Cc1ccccc1 (configuration not stated),41.6 µM,> 100 µM
C/C(=C\CO)CC/C=C(\C)CNc1c(F)c(F)c(F)c(F)c1F,–,70.1 µM
COC(=O)Nc1nc2ccc(S(=O)c3ccccc3)cc2[nH]1 (configuration not stated),3.12 µM,> 100 µM

# Tested on: 786-0 renal
# Experiment: NCI tumour cell line growth inhibition, 48 h
SMILES,GI50,TGI
Cc1cc2nc(C(Cl)Cl)nc(-c3ccc(Cl)cc3)n2n1,4.93 µM,> 100 µM
CC1=C(C#N)C23C(=O)c4ccccc4C(O)=C2C(=O)C=CC3(O)N1Cc1ccccc1 (configuration not stated),44.5 µM,> 100 µM
C/C(=C\CO)CC/C=C(\C)CNc1c(F)c(F)c(F)c(F)c1F,–,> 100 µM
COC(=O)Nc1nc2ccc(S(=O)c3ccccc3)cc2[nH]1 (configuration not stated),5.2 µM,> 100 µM

# Tested on: U251 CNS
# Experiment: NCI tumour cell line growth inhibition, 48 h
SMILES,GI50,TGI
Cc1cc2nc(C(Cl)Cl)nc(-c3ccc(Cl)cc3)n2n1,0.509 µM,3.7 µM
CC1=C(C#N)C23C(=O)c4ccccc4C(O)=C2C(=O)C=CC3(O)N1Cc1ccccc1 (configuration not stated),42 µM,> 100 µM
C/C(=C\CO)CC/C=C(\C)CNc1c(F)c(F)c(F)c(F)c1F,–,59.2 µM
COC(=O)Nc1nc2ccc(S(=O)c3ccccc3)cc2[nH]1 (configuration not stated),4.45 µM,> 100 µM

# Tested on: SR leukemia
# Experiment: NCI tumour cell line growth inhibition, 48 h
SMILES,GI50,TGI
Cc1cc2nc(C(Cl)Cl)nc(-c3ccc(Cl)cc3)n2n1,0.372 µM,> 21.1 µM
CC1=C(C#N)C23C(=O)c4ccccc4C(O)=C2C(=O)C=CC3(O)N1Cc1ccccc1 (configuration not stated),33.7 µM,> 100 µM
C/C(=C\CO)CC/C=C(\C)CNc1c(F)c(F)c(F)c(F)c1F,–,74.9 µM
COC(=O)Nc1nc2ccc(S(=O)c3ccccc3)cc2[nH]1 (configuration not stated),2.25 µM,> 100 µM

# Tested on: KM12 colon
# Experiment: NCI tumour cell line growth inhibition, 48 h
SMILES,GI50,TGI
Cc1cc2nc(C(Cl)Cl)nc(-c3ccc(Cl)cc3)n2n1,0.414 µM,1.74 µM
CC1=C(C#N)C23C(=O)c4ccccc4C(O)=C2C(=O)C=CC3(O)N1Cc1ccccc1 (configuration not stated),42.4 µM,> 100 µM
C/C(=C\CO)CC/C=C(\C)CNc1c(F)c(F)c(F)c(F)c1F,–,77.5 µM
COC(=O)Nc1nc2ccc(S(=O)c3ccccc3)cc2[nH]1 (configuration not stated),4.48 µM,> 100 µM

# Tested on: NCI-H23 lung
# Experiment: NCI tumour cell line growth inhibition, 48 h
SMILES,GI50,TGI
Cc1cc2nc(C(Cl)Cl)nc(-c3ccc(Cl)cc3)n2n1,0.479 µM,2.42 µM
CC1=C(C#N)C23C(=O)c4ccccc4C(O)=C2C(=O)C=CC3(O)N1Cc1ccccc1 (configuration not stated),29.9 µM,> 100 µM
C/C(=C\CO)CC/C=C(\C)CNc1c(F)c(F)c(F)c(F)c1F,–,> 100 µM
COC(=O)Nc1nc2ccc(S(=O)c3ccccc3)cc2[nH]1 (configuration not stated),8.79 µM,> 100 µM

# Tested on: NCI-H460 lung
# Experiment: NCI tumour cell line growth inhibition, 48 h
SMILES,GI50,TGI
Cc1cc2nc(C(Cl)Cl)nc(-c3ccc(Cl)cc3)n2n1,0.304 µM,1.09 µM
CC1=C(C#N)C23C(=O)c4ccccc4C(O)=C2C(=O)C=CC3(O)N1Cc1ccccc1 (configuration not stated),30.3 µM,> 100 µM
C/C(=C\CO)CC/C=C(\C)CNc1c(F)c(F)c(F)c(F)c1F,–,> 100 µM
COC(=O)Nc1nc2ccc(S(=O)c3ccccc3)cc2[nH]1 (configuration not stated),4.17 µM,> 100 µM

# Tested on: HCT-15 colon
# Experiment: NCI tumour cell line growth inhibition, 48 h
SMILES,GI50,TGI
Cc1cc2nc(C(Cl)Cl)nc(-c3ccc(Cl)cc3)n2n1,0.745 µM,3.47 µM
CC1=C(C#N)C23C(=O)c4ccccc4C(O)=C2C(=O)C=CC3(O)N1Cc1ccccc1 (configuration not stated),15 µM,> 100 µM
C/C(=C\CO)CC/C=C(\C)CNc1c(F)c(F)c(F)c(F)c1F,–,85.4 µM
COC(=O)Nc1nc2ccc(S(=O)c3ccccc3)cc2[nH]1 (configuration not stated),4.58 µM,> 100 µM

# Tested on: A498 renal
# Experiment: NCI tumour cell line growth inhibition, 48 h
SMILES,GI50,TGI
Cc1cc2nc(C(Cl)Cl)nc(-c3ccc(Cl)cc3)n2n1,1.09 µM,2.65 µM
CC1=C(C#N)C23C(=O)c4ccccc4C(O)=C2C(=O)C=CC3(O)N1Cc1ccccc1 (configuration not stated),> 100 µM,> 100 µM
COC(=O)Nc1nc2ccc(S(=O)c3ccccc3)cc2[nH]1 (configuration not stated),15.5 µM,> 100 µM

# Tested on: SK-MEL-28 melanoma
# Experiment: NCI tumour cell line growth inhibition, 48 h
SMILES,GI50,TGI
Cc1cc2nc(C(Cl)Cl)nc(-c3ccc(Cl)cc3)n2n1,1.63 µM,3.38 µM
CC1=C(C#N)C23C(=O)c4ccccc4C(O)=C2C(=O)C=CC3(O)N1Cc1ccccc1 (configuration not stated),57.1 µM,> 100 µM
C/C(=C\CO)CC/C=C(\C)CNc1c(F)c(F)c(F)c(F)c1F,–,41.1 µM
COC(=O)Nc1nc2ccc(S(=O)c3ccccc3)cc2[nH]1 (configuration not stated),3.78 µM,> 100 µM

# Tested on: SK-OV-3 ovarian
# Experiment: NCI tumour cell line growth inhibition, 48 h
SMILES,GI50,TGI
Cc1cc2nc(C(Cl)Cl)nc(-c3ccc(Cl)cc3)n2n1,2.11 µM,7 µM
CC1=C(C#N)C23C(=O)c4ccccc4C(O)=C2C(=O)C=CC3(O)N1Cc1ccccc1 (configuration not stated),> 100 µM,> 100 µM
C/C(=C\CO)CC/C=C(\C)CNc1c(F)c(F)c(F)c(F)c1F,–,> 100 µM
COC(=O)Nc1nc2ccc(S(=O)c3ccccc3)cc2[nH]1 (configuration not stated),3.23 µM,12.4 µM

# Tested on: ACHN renal
# Experiment: NCI tumour cell line growth inhibition, 48 h
SMILES,GI50,TGI
Cc1cc2nc(C(Cl)Cl)nc(-c3ccc(Cl)cc3)n2n1,0.386 µM,2.24 µM
CC1=C(C#N)C23C(=O)c4ccccc4C(O)=C2C(=O)C=CC3(O)N1Cc1ccccc1 (configuration not stated),29.4 µM,> 100 µM
C/C(=C\CO)CC/C=C(\C)CNc1c(F)c(F)c(F)c(F)c1F,–,> 100 µM
COC(=O)Nc1nc2ccc(S(=O)c3ccccc3)cc2[nH]1 (configuration not stated),7.59 µM,> 100 µM

# Tested on: HS 578T breast
# Experiment: NCI tumour cell line growth inhibition, 48 h
SMILES,GI50,TGI
Cc1cc2nc(C(Cl)Cl)nc(-c3ccc(Cl)cc3)n2n1,1.34 µM,4.6 µM
CC1=C(C#N)C23C(=O)c4ccccc4C(O)=C2C(=O)C=CC3(O)N1Cc1ccccc1 (configuration not stated),26.2 µM,> 100 µM
C/C(=C\CO)CC/C=C(\C)CNc1c(F)c(F)c(F)c(F)c1F,–,74.6 µM
COC(=O)Nc1nc2ccc(S(=O)c3ccccc3)cc2[nH]1 (configuration not stated),19.6 µM,> 100 µM

# Tested on: NCI-H522 lung
# Experiment: NCI tumour cell line growth inhibition, 48 h
SMILES,GI50,TGI
Cc1cc2nc(C(Cl)Cl)nc(-c3ccc(Cl)cc3)n2n1,1.56 µM,5.23 µM
CC1=C(C#N)C23C(=O)c4ccccc4C(O)=C2C(=O)C=CC3(O)N1Cc1ccccc1 (configuration not stated),22.9 µM,58.1 µM
C/C(=C\CO)CC/C=C(\C)CNc1c(F)c(F)c(F)c(F)c1F,–,46.3 µM
COC(=O)Nc1nc2ccc(S(=O)c3ccccc3)cc2[nH]1 (configuration not stated),2.79 µM,40.2 µM
